According to patent US8586588B2, “Aryl pyridazinone derivatives and their use as H3 receptor ligands” (Cephalon, Inc., priority 2006, dated 2013):
Like-named read-outs stand apart in the source and are kept apart here.

Experiments:
[1] = biological target: T1, rat histamine H3 receptor (Rattus norvegicus, UniProt Q9QYN8); experiment: Rat H3 radioligand binding ([3H]-N-alpha-methylhistamine, CHO-A3 cell membranes, SPA)
T1 construct: encoding the entire 445-amino-acid rat histamine H3 receptor; expressed in transfected cells
Description: (§1) This was engineered into the pIRES-neo3 mammalian expression vector, which was stably transfected into the CHO-A3 cell line (Euroscreen, Belgium), followed by clonal selection by limiting dilution. Cells were harvested and cell pellets were frozen (−80° C.). Cell pellets were resuspended in 5 mM Tris-HCl, pH 7.5 with […] and a cocktail of protease inhibitors (Complete Protease Inhibition Tablets, Roche Diagnostics). Cells were disrupted using a polytron cell homogenizer and the suspension was centrifuged at 1000×g for 10 minutes at 4° C. The pellet was discarded and the supernatant centrifuged at 40,000×g for 30 min at 4° C. This membrane pellet was washed in membrane buffer containing 50 mM Tris-HCl, pH 7.5 with 0.6 mM EDTA, 5 mM MgCl2 and protease inhibitors, recentrifuged as above and the final pellet resuspended in membrane buffer plus 250 mM sucrose and frozen at −80° C.
(§2) Membranes were resuspended in 50 mM Tris HCl (pH 7.4), 5 mM MgCl2, 0.1% BSA. The membrane suspensions (10 μg protein per well) were incubated in a 96 well microtiter plate with [^3H]-N-alpha-methylhistamine (approximately 1 nM final concentration), test compounds at various concentrations (0.01 nM-30 μM) and scintillation proximity beads (Perkin Elmer, FlashBlueGPCR Scintillating Beads) in a final volume of 80 μl for 4 hours at room temperature, protected from light. Non-specific binding was determined in the presence of 10 μM clobenpropit. Radioligand bound to receptor, and therefore in proximity to the scintillation beads, was measured using a MicroBeta scintillation counter.

human H3 receptor = biological target: T2, human H3 receptor (Homo sapiens, UniProt Q9Y5N1); experiment: Human H3 radioligand binding ([3H]-N-alpha-methylhistamine, CHO cell membranes, SPA); settings: binding constant as letter class
T2 construct: expressed in transfected cells
Description: as §1, with “Cell” for “This was engineered into the pIRES-neo3 mammalian expression vector, which was stably transfected into the CHO-A3 cell line (Euroscreen, Belgium), followed by clonal selection by limiting dilution. Cells were harvested and cell pellets were frozen (−80° C.). Cell”
as §2

[2] = Table A, binding constant as letter class, read-out: Rat H3 Ki
[3] = Table B, binding constant as letter class, read-out: rat H3 Ki

T2 sequence (Q9Y5N1 whole entry): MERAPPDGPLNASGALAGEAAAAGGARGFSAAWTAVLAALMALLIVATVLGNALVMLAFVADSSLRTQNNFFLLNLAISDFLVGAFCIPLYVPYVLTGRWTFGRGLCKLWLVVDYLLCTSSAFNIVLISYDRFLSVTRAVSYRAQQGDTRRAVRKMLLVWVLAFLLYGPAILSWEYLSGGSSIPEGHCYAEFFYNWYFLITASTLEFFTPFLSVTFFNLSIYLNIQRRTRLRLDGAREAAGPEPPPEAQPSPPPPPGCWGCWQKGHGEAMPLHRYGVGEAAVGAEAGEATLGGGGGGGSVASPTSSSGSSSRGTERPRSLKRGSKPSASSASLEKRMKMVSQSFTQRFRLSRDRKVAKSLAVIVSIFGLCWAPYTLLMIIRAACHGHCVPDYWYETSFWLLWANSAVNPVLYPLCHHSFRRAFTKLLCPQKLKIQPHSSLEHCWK
T1 sequence (Q9QYN8 whole entry): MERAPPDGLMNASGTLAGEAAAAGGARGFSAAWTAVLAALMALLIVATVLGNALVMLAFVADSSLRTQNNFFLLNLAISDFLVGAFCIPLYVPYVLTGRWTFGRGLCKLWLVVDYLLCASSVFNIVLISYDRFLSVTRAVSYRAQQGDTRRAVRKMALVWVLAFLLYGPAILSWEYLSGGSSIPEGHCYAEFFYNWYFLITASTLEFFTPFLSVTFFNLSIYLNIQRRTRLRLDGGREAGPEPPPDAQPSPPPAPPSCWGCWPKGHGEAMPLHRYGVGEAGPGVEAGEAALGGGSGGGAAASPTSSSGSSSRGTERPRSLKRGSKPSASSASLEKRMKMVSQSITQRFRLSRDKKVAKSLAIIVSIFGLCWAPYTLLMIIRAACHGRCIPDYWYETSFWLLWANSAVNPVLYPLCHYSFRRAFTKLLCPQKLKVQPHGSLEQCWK

Structure (SMILES)	Ki [1, 2]	Ki (human H3 receptor; Table A)	Ki [1, 3]	Ki (human H3 receptor; Table B)	Ki [1]
C[C@@H]1CCCN1CCCOc1ccc(C2=NN(Cc3ccc(Cl)cc3Cl)C(=O)CC2)cc1 [Example 8, 2-(2,4-Dichloro-benzyl)-6-{4-[3-((R)-2-methyl-pyrrolidin-1-yl)-propoxy]-phenyl}-4,5-dihydro-2H-pyridazin-3-one]	0.1 to 100 nM	0.1 to 100 nM	–	–	–
CCCn1nc(-c2ccc(OCCCN3[C@H](C)CC[C@H]3C)cc2)c2sccc2c1=O [Example 33, 7-{4-[3-((2R,5R)-2,5-Dimethyl-pyrrolidin-1-yl)-propoxy]-phenyl)-5-propyl-5H-thieno[2,3-d]pyridazin-4-one]	101 to 500 nM	0.1 to 100 nM	–	–	–
Cc1cc(-c2ccc(OCCCN3CCC[C@H]3C)cc2)nn(C)c1=O [Example 40, 2,4-Dimethyl-6-{4-[3-((R)-2-methyl-pyrrolidin-1-yl)-propoxy]-phenyl}-2H-pyridazin-3-one]	0.1 to 100 nM	0.1 to 100 nM	–	–	–
Cc1cc(-c2ccc(OCCCN3CCCCC3)cc2)nn(C)c1=O [Example 39, 2,4-Dimethyl-6-[4-(3-piperidin-1-yl-propoxy)-phenyl]-2H-pyridazin-3-one]	0.1 to 100 nM	0.1 to 100 nM	–	–	–
Cc1cc(-c2ccc(OCCCN3CCCCC3)cc2)nn(C(C)C)c1=O [Example 42, 2-Isopropyl-4-methyl-6-[4-(3-piperidin-1-yl-propoxy)-phenyl]-2H-pyridazin-3-one]	101 to 500 nM	101 to 500 nM	–	–	–
CC1CCC(C)N1CCCOc1ccc(-c2nn(C(C)C)c(=O)c3ccsc23)cc1 (centres unmarked) [Example 23, 7-{4-[3-(2,5-Dimethyl-pyrrolidin-1-yl)-propoxy]-phenyl}-5-isopropyl-5H-thieno[2,3-d]pyridazin-4-one]	101 to 500 nM	0.1 to 100 nM	–	–	–
CCCn1nc(-c2ccc(OCCCN3CCC(C)CC3)cc2)c2sccc2c1=O [Example 34, 7-{4-[3-(4-Methyl-piperidin-1-yl)-propoxy]-phenyl}-5-propyl-5H-thieno[2,3-d]pyridazin-4-one]	0.1 to 100 nM	0.1 to 100 nM	–	–	–
CC(C)n1nc(-c2ccc(OCCCN3CCCCC3)cc2)ccc1=O [Example 3, 2-Isopropy1-6-[4-(3-piperidin-1-yl-propoxy)-pheny1]-2H-pyridazin-3-one]	0.1 to 100 nM	0.1 to 100 nM	–	–	–
C[C@H]1CC(=O)NN=C1c1ccc(OC2CCN(C3CCC3)CC2)cc1 [Example 191, (S)-6-[4-(1-Cyclobutyl-piperidin-4-yloxy)-phenyl]-5-methyl-4,5-dihydro-2H-pyridazin-3-one]	–	–	–	–	0.1 to 100 nM
C[C@@H]1CC(=O)NN=C1c1ccc(OC2CCN(C3CCC3)CC2)cc1 [Example 190, (R)-6-[4-(1-Cyclobutyl-piperidin-4-yloxy)-phenyl]-5-methyl-4,5-dihydro-2H-pyridazin-3-one]	–	–	–	–	0.1 to 100 nM
Cn1nc(-c2ccc(OCCCN3CCC[C@H]3CO)cc2)ccc1=O [Example 14, 6-{4-[3-((S)-2-Hydroxymethyl-pyrrolidin-1-yl)-propoxy]-phenyl}-2-methyl-2H-pyridazin-3-one]	–	–	–	–	0.1 to 100 nM
Cn1nc(-c2ccc(OCCCN3CCC[C@@H]3CO)cc2)ccc1=O [Example 15, 6-{4-[3-((R)-2-Hydroxymethyl-pyrrolidin-1-yl)-propoxy]-phenyl}-2-methyl-2H-pyridazin-3-one]	–	–	–	–	501 to 1000 nM

Further lines, with some results ahead:

Ki [1, 2]	Ki (human H3 receptor; Table A)	Ki [1, 3]	Ki (human H3 receptor; Table B)	Structure (SMILES)	Ki [1]
0.1 to 100 nM	0.1 to 100 nM	–	–	CC(C)N1CCC(Oc2ccc(-c3ccc(=O)n(C)n3)cc2)CC1 [Example 72]	–
–	–	0.1 to 100 nM	0.1 to 100 nM	O=C1NN=C(c2ccc(OC3CCN(C4CCC4)CC3)cc2)C2CC12 (single isomer, unassigned) [Example 249, 5-[4-(1-Cyclobutyl-piperidin-4-yloxy)-phenyl]-3,4-diaza-bicyclo[4.1.0]hept-4-en-2-one]	–
0.1 to 100 nM	0.1 to 100 nM	–	–	C[C@@H]1CCCN1CCCOc1ccc(C2=NN(C)C(=O)C3CCCC23)cc1 (stereo partly drawn) [Example 58, 2-Methyl-4-{4-[3-((R)-2-methyl-pyrrolidin-1-yl)-propoxy]-phenyl}-2,4a,5,6,7,7a-hexahydro-cyclopenta[d]pyridazin-1-one]	–
–	–	0.1 to 100 nM	0.1 to 100 nM	CC1CC(=O)N(c2ccccn2)N=C1c1ccc(OC2CCN(C3CCC3)CC2)cc1 (centres unmarked) [Example 193, 6-[4-(1-Cyclobutyl-piperidin-4-yloxy)-phenyl]-5-methyl-2-pyridin-2-yl-4,5-dihydro-2H-pyridazin-3-one]	–
> 1000 nM	> 1000 nM	–	–	Cn1nc(-c2ccc(OCC3CCNCC3)cc2)ccc1=O [Example 66, 2-Methyl-6-[4-(piperidin-4-ylmethoxy)-phenyl]-2H-pyridazin-3-one]	–
0.1 to 100 nM	0.1 to 100 nM	–	–	Cn1nc(-c2ccc(OCCCN3CCCCC3)cc2)c2ccccc2c1=O [Example 50, 2-Methyl-4-[4-(3-piperidin-1-yl-propoxy)-phenyl]-2H-phthalazin-1-one]	–
–	–	101 to 500 nM	101 to 500 nM	COc1cc(OCCCN2CCC[C@H]2C)ccc1-c1ccc(=O)[nH]n1 [Example 213, 6-{2-Methoxy-4-[3-((R)-2-methyl-pyrrolidin-1-yl)-propoxy]-phenyl}-2H-pyridazin-3-one]	–
–	–	501 to 1000 nM	101 to 500 nM	Cn1nc(-c2cccc(OCCCN3CCCCC3)c2)c2c(c1=O)CCC2 [Example 126, 2-Methyl-4-[3-(3-piperidin-1-yl-propoxy)-phenyl]-2,5,6,7-tetrahydro-cyclopenta[d]pyridazin-1-one]	–
–	–	0.1 to 100 nM	0.1 to 100 nM	Cn1ncc(-c2ccc(OCCCN3CCCCC3)cc2)cc1=O [Example 92, 2-Methyl-5-[4-(3-piperidin-1-yl-propoxy)-phenyl]-2H-pyridazin-3-one]	–
–	–	0.1 to 100 nM	0.1 to 100 nM	Cc1cc(OCCCN2CCC[C@H]2C)ccc1-c1cn[nH]c(=O)c1 [Example 231, 5-{2-methyl-4-[3-((R)-2-methyl-pyrrolidin-1-yl)-propoxyl]-phenyl}-2H-pyridazin-3-one]	–
–	–	0.1 to 100 nM	0.1 to 100 nM	COc1cn[nH]c(=O)c1-c1ccc(OCCCN2CCC[C@H]2C)cc1 [Example 237, 5-Methoxy-4-{4-[3-((R)-2-methyl-pyrrolidin-1-yl)-propoxy]-phenyl}-2H-pyridazin-3-one]	–
0.1 to 100 nM	0.1 to 100 nM	–	–	C[C@@H]1CCCN1CCCOc1ccc2c(c1)CCc1cc(=O)n(C)nc1-2 [Example 75, 2-Methyl-8-[3-((R)-2-methyl-pyrrolidin-1-yl)-propoxy]-5,6-dihydro-2H-benzo[h]cinnolin-3-one]	–
101 to 500 nM	101 to 500 nM	–	–	Cn1nc(-c2ccc(OCC3CCN(C4CCCC4)CC3)cc2)ccc1=O [Example 70, 6-[4-(1-Cyclopentyl-piperidin-4-ylmethoxy)-phenyl]-2-methyl-2H-pyridazin-3-one]	–
–	–	0.1 to 100 nM	0.1 to 100 nM	CC1CC(c2ccc(OC3CCN(C4CCC4)CC3)cc2)=NNC1=O (centres unmarked) [Example 116, 6-[4-(1-Cyclobutyl-piperidin-4-yloxy)-phenyl]-4-methyl-4,5-dihydro-2H-pyridazin-3-one]	–
–	–	0.1 to 100 nM	–	C[C@@H]1CCCN1CCCOc1ccc(C2=NNC(=O)C3CC23)cc1 (single isomer, unassigned) [Example 247]	–
–	–	–	0.1 to 100 nM	C[C@@H]1CCCN1CCCOc1ccc(-c2n[nH]c(=O)cc2-c2ccccn2)cc1 [Example 112, 6-{4-[3-((R)-2-Methyl-pyrrolidin-1-yl)-propoxy]-phenyl}-5-pyridin-2-yl-2H-pyridazin-3-one]	–
